Laboratory results: article PMC10041525, “New Dual Inhibitors of Bacterial Topoisomerases with Broad-Spectrum Antibacterial Activity and In Vivo Efficacy against Vancomycin-Intermediate Staphylococcus aureus” (Journal of Medicinal Chemistry, 2023)
Values after ≈ are worked out from the molar mass of the structure shown. Values joined by “and” are separate entries in the source; they are usually repeats but may differ in a detail not shown here. Identical values can stand only once. Like-named read-outs stand apart in the source and are kept apart here.

Key:
[1] = tested on: E. faecium (n = 13); assay: MIC broth microdilution at IHMA Europe; type: cell-based; conditions: for MIC: Enterococcus faecium, read-out: MIC
[2] = tested on: S. pneumoniae (n = 12); assay: MIC broth microdilution at IHMA Europe; type: cell-based; conditions: for MIC: Streptococcus pneumoniae, read-out: MIC
[3] = tested on: Neisseria gonorrhoeae (n = 12); assay: MIC broth microdilution at IHMA Europe; type: cell-based; conditions: for MIC: Neisseria gonorrhoeae, read-out: MIC
[4] = tested on: E. faecalis ATCC 29212; assay: IHMA QC MIC; type: cell-based
Source text: Supplement jm2c01905_si_004.xlsx, sheet "QC" | column: MIC [µg/mL]

[5] = tested on: Haemophilus influenzae (n = 14); assay: MIC broth microdilution at IHMA Europe; type: cell-based, H. influenzae; conditions: for MIC: Haemophilus influenzae, read-out: MIC

In the case of `Cc1[nH]c(C(=O)Nc2nc3c(N4[C@@H]5CC[C@H]4COC5)cc(C(=O)O)cc3s2)c(Cl)c1Cl` [7h, 4-((1R,5S)-3-Oxa-8-azabicyclo[3.2.1]octan-8-yl)-2-(3,4-dichloro-5-methyl-1H-pyrrole-2-carboxamido)benzo[d]thiazole-6-carboxylic Acid], the MIC ([1]; E. faecium IHMA N° 1764866) is reported as no more than 0.03 µg/mL, the MIC ([1]; E. faecium IHMA N° 1765436) is reported as 0.06 µg/mL (≈ 0.125 µM) and the MIC ([1]; E. faecium IHMA N° 1765746) is reported as no more than 0.03 µg/mL. It also gave an MIC ([1]; E. faecium IHMA N° 1893573) of no more than 0.03 µg/mL, an MIC ([1]; E. faecium IHMA N° 1893846) of 0.12 µg/mL (≈ 0.249 µM) and an MIC ([1]; E. faecium IHMA N° 1893942) of 0.06 µg/mL (≈ 0.125 µM). For the same molecule, the MIC ([1]; E. faecium IHMA N° 1894055) was 0.06 µg/mL (≈ 0.125 µM), the MIC ([1]; E. faecium IHMA N° 1897027) was 0.06 µg/mL (≈ 0.125 µM) and the MIC ([1]; E. faecium IHMA N° 1897101) was no more than 0.03 µg/mL. The MIC ([1]; E. faecium IHMA N° 1904592) was no more than 0.03 µg/mL, the MIC ([1]; E. faecium IHMA N° 2075051) was 0.06 µg/mL (≈ 0.125 µM) and the MIC ([1]; E. faecium IHMA N° 2077718) was no more than 0.03 µg/mL. For the same molecule, the MIC ([1]; E. faecium IHMA N° 2083787) was no more than 0.03 µg/mL, the “Cumulative % at MIC” value ([1]; MIC 0.06 µg/mL) was 92.3% and the “Cumulative % at MIC” value ([1]; MIC […]) was 100.0%. For the same molecule, the “Cumulative % at MIC” value ([1]; MIC ≤0.03 µg/mL) was 53.8%, the “MIC, all isolates” value ([1]; n = 13) was no more than 0.12 µg/mL and the “Cumulative % at MIC” value ([2]; MIC 0.06 µg/mL) was 16.7%. For the same molecule, the “Cumulative % at MIC” value ([2]; MIC […] µg/mL) was 100.0%, the “Cumulative % at MIC” value ([2]; MIC […]) was 91.7% and the MIC ([2]; S. pneumoniae IHMA N° 1775387) was 0.25 µg/mL (≈ 0.519 µM). It also gave an MIC ([2]; S. pneumoniae IHMA N° 1776057) of 0.5 µg/mL (≈ 1.04 µM), an MIC ([2]; S. pneumoniae IHMA N° 1785617) of 0.25 µg/mL (≈ 0.519 µM) and an MIC ([2]; S. pneumoniae IHMA N° 1800765) of 0.25 µg/mL (≈ 0.519 µM). It also gave an MIC ([2]; S. pneumoniae IHMA N° 1811259) of 0.06 µg/mL (≈ 0.125 µM), an MIC ([2]; S. pneumoniae IHMA N° 1831562) of 0.25 µg/mL (≈ 0.519 µM) and an MIC ([2]; S. pneumoniae IHMA N° 1902609) of 0.25 µg/mL (≈ 0.519 µM). It also gave an MIC ([2]; S. pneumoniae IHMA N° 1979675) of 0.25 µg/mL (≈ 0.519 µM), an MIC ([2]; S. pneumoniae IHMA N° 1991963) of 0.25 µg/mL (≈ 0.519 µM) and an MIC ([2]; S. pneumoniae IHMA N° 2057487) of 0.25 µg/mL (≈ 0.519 µM). The MIC ([2]; S. pneumoniae IHMA N° 2073087) was 0.25 µg/mL (≈ 0.519 µM), the MIC ([2]; S. pneumoniae IHMA N° 2117109) was 0.06 µg/mL (≈ 0.125 µM) and the “MIC, all isolates” value ([2]; n = 12) was no more than 0.5 µg/mL. For the same molecule, the “No. of isolates at MIC” value [3] was 8 and 4, the “Cumulative % at MIC” value ([3]; MIC 0.06 µg/mL) was 100.0% and the “Cumulative % at MIC” value ([3]; MIC ≤0.03 µg/mL) was 66.7%. It also gave an MIC ([3]; isolate IHMA 1123853) of no more than 0.03 µg/mL, an MIC ([3]; isolate IHMA 1130935) of no more than 0.03 µg/mL and an MIC ([3]; isolate IHMA 1130989) of 0.06 µg/mL (≈ 0.125 µM). It also gave an MIC ([3]; isolate IHMA 1130991) of no more than 0.03 µg/mL, an MIC ([3]; isolate IHMA 1137292) of 0.06 µg/mL (≈ 0.125 µM) and an MIC ([3]; isolate IHMA 1145734) of no more than 0.03 µg/mL. For the same molecule, the MIC ([3]; isolate IHMA 1145735) was no more than 0.03 µg/mL, the MIC ([3]; isolate IHMA 1165897) was no more than 0.03 µg/mL and the MIC ([3]; isolate IHMA 1194748) was no more than 0.03 µg/mL. The MIC ([3]; isolate IHMA 1194750) was no more than 0.03 µg/mL, the MIC ([3]; isolate IHMA 1546199) was 0.06 µg/mL (≈ 0.125 µM) and the MIC ([3]; isolate IHMA 1546215) was 0.06 µg/mL (≈ 0.125 µM). The “MIC, all isolates” value ([3]; n = 12) was no more than 0.06 µg/mL, the MIC ([4]; Enterococcus faecalis, ATCC29212) was no more than 0.03 µg/mL and the MIC ([4]; QC strain E. faecalis ATCC 29212, test date 2021-11-26) was ≤0,03 µg/mL. The “No. of isolates at MIC” value [5] was 5 and 4, the MIC ([5]; H. influenzae IHMA N° 1227715) was 0.12 µg/mL (≈ 0.249 µM) and the MIC ([5]; H. influenzae IHMA N° 1241620) was 0.12 µg/mL (≈ 0.249 µM). It also gave an MIC ([5]; H. influenzae IHMA N° 1244149) of 0.5 µg/mL (≈ 1.04 µM), an MIC ([5]; H. influenzae IHMA N° 1249803) of 0.12 µg/mL (≈ 0.249 µM) and an MIC ([5]; H. influenzae IHMA N° 1254355) of 0.25 µg/mL (≈ 0.519 µM). For the same molecule, the MIC ([5]; H. influenzae IHMA N° 1258580) was 0.5 µg/mL (≈ 1.04 µM), the MIC ([5]; H. influenzae IHMA N° 1262734) was 0.25 µg/mL (≈ 0.519 µM) and the MIC ([5]; H. influenzae IHMA N° 1272723) was 0.12 µg/mL (≈ 0.249 µM). The MIC ([5]; H. influenzae IHMA N° 1286846) was 0.5 µg/mL (≈ 1.04 µM), the MIC ([5]; H. influenzae IHMA N° 1337530) was 0.12 µg/mL (≈ 0.249 µM) and the MIC ([5]; H. influenzae IHMA N° 1440085) was 0.5 µg/mL (≈ 1.04 µM). For the same molecule, the MIC ([5]; H. influenzae IHMA N° 1479509) was 1 µg/mL (≈ 2.08 µM), the MIC ([5]; H. influenzae IHMA N° 1952952) was 0.25 µg/mL (≈ 0.519 µM) and the MIC ([5]; H. influenzae IHMA N° 2047461) was 0.25 µg/mL (≈ 0.519 µM). For the same molecule, the “Cumulative % at MIC” value ([5]; MIC […] µg/mL) was 92.9%, the “Cumulative % at MIC” value ([5]; MIC […] µg/mL) was 100.0% and the “No. of isolates at MIC” value ([5]; MIC […] µg/mL) was 1. For the same molecule, the “MIC, all isolates” value ([5]; n = 14) was no more than 1 µg/mL.

`O=C(O)c1cn(C2CC2)c2cc(N3CCNCC3)c(F)cc2c1=O` [ciprofloxacin] was tested, and the “Cumulative % at MIC” value ([3]; MIC 0.004 µg/mL) was 41.7%, the “No. of isolates at MIC” value ([3]; MIC 0.004 µg/mL) was 5 and the “Cumulative % at MIC” value ([3]; MIC >[…] µg/mL) was 100.0%. For the same molecule, the “No. of isolates at MIC” value ([3]; MIC >[…] µg/mL) was 2, the MIC ([3]; isolate IHMA 1123853) was greater than 8 µg/mL and the MIC ([3]; isolate IHMA 1130935) was 4 µg/mL (≈ 12.1 µM). It also gave an MIC ([3]; isolate IHMA 1130989) of 4 µg/mL (≈ 12.1 µM), an MIC ([3]; isolate IHMA 1130991) of 8 µg/mL (≈ 24.1 µM) and an MIC ([3]; isolate IHMA 1137292) greater than 8 µg/mL. It also gave an MIC ([3]; isolate IHMA 1145734) of 8 µg/mL (≈ 24.1 µM), an MIC ([3]; isolate IHMA 1145735) of 4 µg/mL (≈ 12.1 µM) and an MIC ([3]; isolate IHMA 1165897) of 0.004 µg/mL (≈ 0.0121 µM). It also gave an MIC ([3]; isolate IHMA 1194748) of 0.004 µg/mL (≈ 0.0121 µM), an MIC ([3]; isolate IHMA 1194750) of 0.004 µg/mL (≈ 0.0121 µM) and an MIC ([3]; isolate IHMA 1546199) of 0.004 µg/mL (≈ 0.0121 µM). It also gave an MIC ([3]; isolate IHMA 1546215) of 0.004 µg/mL (≈ 0.0121 µM).
